Laboratory results published in patent EP4588921A1, “FREE BASE CRYSTAL FORM OF POLYCYCLIC COMPOUND OF NITROGEN-CONTAINING HETEROCYCLE, AND PREPARATION METHOD THEREFOR” (Jiangsu Hansoh Pharmaceutical Group Co., Ltd., priority 2022, dated 2024).

Assays:
[1] = in vivo; settings: male, SD, rat, po, 5 mg/kg
Method: SD rats were used as test animals to study the pharmacokinetic behaviour of the compounds of the present invention in rat (plasma) after oral administration at a dose of 5 mg/kg.
The example compound of the present invention, made in house.
Oral administration drug preparation: 20%HP-β-CD in Water
HP-β-CD powder (20 g) was weighed and dissolved in purified water (100 mL), and the mixture was homogeneously mixed by vortex and subjected to ultrasound treatment to afford a clear solution.
The example compound was weighed and added to a 20 mL glass bottle, the solution was added and the mixture was subjected to ultrasound treatment for 10 minutes to afford a colourless clear solution with a concentration of 0.5 mg/mL.
The brain tissues were rinsed with pre-cooled PBS, wiped dry, weighed, and stored at -80°C.
• 1) Acetonitrile (160 µL) was added to plasma sample (40 µL) for precipitation, and the mixture was mixed and centrifuged at 3500 × g for 5 to 20 minutes. • 2) The treated supernatant solution was taken and subjected to LC/MS/MS to analyse the concentrations of the test compounds. LC/MS/MS analysis instrument: AB Sciex API 4000 Qtrap.
• Liquid phase conditions: Shimadzu LC-20AD pump • Chromatographic column: Agilent ZORBAX XDB-C18 (50×2.1 mm, 3.5 µm) mobile phase: liquid A: 0.1% aqueous formic acid solution, liquid B: acetonitrile • Flow rate: 0.4 mL/min • Elution time: 0-4.0 min, the eluent is as follows:
The main pharmacokinetic parameters were calculated using WinNonlin 6.1.

[2] = target: T1, CYP450 2C9 (Homo sapiens, UniProt P11712); assay: CYP enzyme single point inhibition test, human liver microsomes; assay type: in vitro ADME; settings: 20 min incubation
T1 construct: Human liver microsome incubation system was used; from tissue; host or cells: human liver microsomes
T1 sequence (P11712 whole entry): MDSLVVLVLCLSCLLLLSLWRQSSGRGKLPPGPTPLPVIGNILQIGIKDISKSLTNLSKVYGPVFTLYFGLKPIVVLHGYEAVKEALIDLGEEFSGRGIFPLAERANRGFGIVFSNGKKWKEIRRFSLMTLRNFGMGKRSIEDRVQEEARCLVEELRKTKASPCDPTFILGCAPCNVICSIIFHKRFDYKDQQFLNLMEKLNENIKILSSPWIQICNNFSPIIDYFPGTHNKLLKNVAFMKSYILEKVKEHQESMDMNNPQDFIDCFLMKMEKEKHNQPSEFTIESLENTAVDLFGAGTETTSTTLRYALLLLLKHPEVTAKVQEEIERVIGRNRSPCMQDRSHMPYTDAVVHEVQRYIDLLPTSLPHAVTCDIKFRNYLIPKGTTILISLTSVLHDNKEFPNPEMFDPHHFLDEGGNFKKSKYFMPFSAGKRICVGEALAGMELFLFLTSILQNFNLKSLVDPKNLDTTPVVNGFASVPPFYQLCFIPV
Method: (§1) Human liver microsome incubation system was used, and the single point method was used to quickly predict the inhibition of compounds on CYP450 enzyme subtypes.
(§2) NADPH (reduced nicotinamide adenine dinucleotide phosphate) was weighed and added to 100 mM phosphate buffer, with the final concentration being 2.5 mM.
(§3) Formulation of the reaction liquid of the test compound: The test example compound was weighed, diluted to 10 mM with DMSO, and diluted to 100 µM with 100 mM phosphate buffer.
(§4) • 1. Liver microsomes (40 µL), substrate (10 µL), and test compound (10 µL) were added to a 96-well plate and the mixture was pre-incubated for 3 min. • 2. NADPH (40 µL) was added. • 3. At 20 min, acetonitrile stop solution containing internal standard (300 µL) was added. • 4. The mixture was centrifuged and the sample was loaded.

[3] = target: T2, CYP450 2D6 (Homo sapiens, UniProt P10635); assay: as above; assay type: in vitro ADME; settings: 20 min incubation
T2 construct: Human liver microsome incubation system was used; from tissue; host or cells: human liver microsomes
T2 sequence (P10635 whole entry): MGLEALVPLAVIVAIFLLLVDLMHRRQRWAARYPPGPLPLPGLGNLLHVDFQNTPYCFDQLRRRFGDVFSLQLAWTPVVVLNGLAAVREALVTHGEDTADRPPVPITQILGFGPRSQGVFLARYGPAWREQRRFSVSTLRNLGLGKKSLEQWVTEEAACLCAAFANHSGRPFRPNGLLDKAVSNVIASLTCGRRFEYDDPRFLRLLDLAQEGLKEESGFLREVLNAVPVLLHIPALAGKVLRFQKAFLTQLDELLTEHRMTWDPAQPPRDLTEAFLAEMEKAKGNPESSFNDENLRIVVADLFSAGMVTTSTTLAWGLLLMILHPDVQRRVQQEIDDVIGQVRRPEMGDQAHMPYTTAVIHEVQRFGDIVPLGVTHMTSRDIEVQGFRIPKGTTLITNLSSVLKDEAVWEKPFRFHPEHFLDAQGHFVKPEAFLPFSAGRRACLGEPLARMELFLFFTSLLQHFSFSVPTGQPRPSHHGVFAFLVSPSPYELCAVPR
Method: as §1, §2, §3, §4

[4] = target: T3, CYP450 1A2 (Homo sapiens, UniProt P05177); assay: as above; assay type: in vitro ADME; settings: 20 min incubation
T3 construct: Human liver microsome incubation system was used; from tissue; host or cells: human liver microsomes
T3 sequence (P05177 1-516): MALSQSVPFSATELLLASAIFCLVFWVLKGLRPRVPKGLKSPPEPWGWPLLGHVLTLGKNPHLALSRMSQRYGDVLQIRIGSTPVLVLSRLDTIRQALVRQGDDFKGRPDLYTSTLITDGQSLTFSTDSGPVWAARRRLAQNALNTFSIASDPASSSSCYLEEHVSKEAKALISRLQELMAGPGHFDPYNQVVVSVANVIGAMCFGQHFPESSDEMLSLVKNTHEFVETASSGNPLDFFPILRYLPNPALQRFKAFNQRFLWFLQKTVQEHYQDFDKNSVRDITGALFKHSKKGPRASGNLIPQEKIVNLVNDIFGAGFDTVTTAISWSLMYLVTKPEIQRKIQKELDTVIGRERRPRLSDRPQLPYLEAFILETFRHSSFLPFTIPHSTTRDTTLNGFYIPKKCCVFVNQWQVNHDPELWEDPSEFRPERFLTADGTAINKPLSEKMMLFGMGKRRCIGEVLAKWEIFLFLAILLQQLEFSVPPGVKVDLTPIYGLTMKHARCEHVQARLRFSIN
Method: as §1, §2, §3, §4

[5] = target: T4, CYP450 2C19 (Homo sapiens, UniProt P33261); assay: as above; assay type: in vitro ADME; settings: 20 min incubation
T4 construct: Human liver microsome incubation system was used; from tissue; host or cells: human liver microsomes
T4 sequence (P33261 whole entry): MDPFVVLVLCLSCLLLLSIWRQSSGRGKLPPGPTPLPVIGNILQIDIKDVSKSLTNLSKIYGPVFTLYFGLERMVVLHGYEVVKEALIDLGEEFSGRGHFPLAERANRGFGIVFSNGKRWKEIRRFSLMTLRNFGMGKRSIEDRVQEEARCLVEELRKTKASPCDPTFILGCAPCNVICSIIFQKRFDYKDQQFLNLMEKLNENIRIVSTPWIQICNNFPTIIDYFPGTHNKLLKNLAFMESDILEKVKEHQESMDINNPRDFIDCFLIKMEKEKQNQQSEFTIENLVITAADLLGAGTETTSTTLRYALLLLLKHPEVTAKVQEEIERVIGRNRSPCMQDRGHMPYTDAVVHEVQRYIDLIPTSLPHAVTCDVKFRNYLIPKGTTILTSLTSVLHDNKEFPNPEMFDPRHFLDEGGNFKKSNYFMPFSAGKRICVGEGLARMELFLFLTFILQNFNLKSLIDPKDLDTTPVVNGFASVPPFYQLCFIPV
Method: as §1, §2, §3, §4

[6] = target: T5, human OX1R (Homo sapiens, UniProt O43613); assay: Calcium current (FLIPR) in cells stably expressing OX1 receptor; assay type: cell-based; settings: CHO-K1/human OX1R cells; agonist OX-A at EC80; FLIPR Tetra
T5 construct: expressed in transfected cells; host or cells: CHO-K1
T5 sequence (O43613 1-425): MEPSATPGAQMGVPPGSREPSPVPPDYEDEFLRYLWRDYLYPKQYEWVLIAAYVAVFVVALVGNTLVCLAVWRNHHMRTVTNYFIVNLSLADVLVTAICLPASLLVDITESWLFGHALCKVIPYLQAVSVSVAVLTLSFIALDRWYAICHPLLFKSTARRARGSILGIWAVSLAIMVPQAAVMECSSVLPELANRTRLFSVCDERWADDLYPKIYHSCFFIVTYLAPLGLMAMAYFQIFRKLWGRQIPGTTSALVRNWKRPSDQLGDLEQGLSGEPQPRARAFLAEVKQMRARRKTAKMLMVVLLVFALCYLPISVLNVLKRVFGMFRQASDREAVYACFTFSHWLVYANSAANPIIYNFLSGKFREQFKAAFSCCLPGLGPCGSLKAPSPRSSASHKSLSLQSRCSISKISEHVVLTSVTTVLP
Method: (§5) Determination of the effect of the compounds of the present invention on calcium current in cells stably expressing OX1 and OX2 receptors 1. Experimental objective: The inhibitory effect of the compounds on calcium current activity in CHO-K1/human OX1R and CHO-K1/human OX2R cells was detected. 2. […] 3. […] The IC50 of the positive compounds and test compounds was determined. 4. Experimental data processing method: FLIPR Tetra was used to read and collect the fluorescence signal value (RFU). […] 5.

[7] = target: T6, human OX2R (Homo sapiens, UniProt O43614); assay: Calcium current (FLIPR) in cells stably expressing OX2 receptor; assay type: cell-based; settings: for IC50: CHO-K1/human OX2R cells, agonist OX-B at EC80, FLIPR Tetra; for Select fold: OX1R IC50 over OX2R IC50
T6 construct: expressed in transfected cells; host or cells: CHO-K1
T6 sequence (O43614 1-444): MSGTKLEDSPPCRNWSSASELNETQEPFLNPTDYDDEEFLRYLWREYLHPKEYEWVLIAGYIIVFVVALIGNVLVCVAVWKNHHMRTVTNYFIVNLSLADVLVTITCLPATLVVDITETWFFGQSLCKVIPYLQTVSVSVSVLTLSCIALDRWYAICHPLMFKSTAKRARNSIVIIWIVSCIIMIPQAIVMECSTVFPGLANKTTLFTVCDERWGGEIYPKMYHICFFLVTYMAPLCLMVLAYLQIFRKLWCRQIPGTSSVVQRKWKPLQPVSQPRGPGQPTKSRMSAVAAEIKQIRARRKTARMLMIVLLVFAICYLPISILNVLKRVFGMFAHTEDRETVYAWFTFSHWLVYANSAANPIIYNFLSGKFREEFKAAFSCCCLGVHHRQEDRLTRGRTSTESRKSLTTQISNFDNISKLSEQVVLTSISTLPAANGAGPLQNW
Method: as §5

Row | Compound | AUC(0-inf) [1] | Cmax [1] | Tmax [1] | IC50 [2] | IC50 [3] | IC50 [4] | IC50 [5] | IC50 [6] | IC50 [7] | Select fold [7]
1 | Cc1nc(N2C[C@H]3CN(C(=O)c4cccc(F)c4-n4nccn4)C[C@H]3C2)nc(C(C)(C)O)c1F [Compound 11, (3-fluoro-2-(2H-1,2,3-triazol-2-yl)phenyl)((cis)-5-(5-fluoro-4-(2-hydroxypropan-2-yl)-6-methylpyrimidin-2-yl)hexahydropyrrolo [3,4-c]pyrrol-2(1H)-yl)methanone] | 821 ng·h/mL | 394 ng/mL | 15 min | > 100 µM | > 100 µM | > 100 µM | 82.7 µM | 1.32 µM | 0.027 µM | 49
2 | CC(C)(O)c1nc(N2C[C@H]3CN(C(=O)c4c(F)cccc4-c4ncccn4)C[C@H]3C2)ncc1F [Compound 9, ((3aR,6aS)-5-(5-fluoro-4-(2-hydroxyprop-2-yl)pyrimidin-2-yl)hexahydropyrrolo[3,4-c]pyrrol-2(1H)-yl)(2-fluoro-6-(pyrimidin-2-yl)phenyl)methanone] | 130 ng·h/mL | 124 ng/mL | 36 min | > 100 µM | > 100 µM | > 100 µM | 82.7 µM | 1.06 µM | 0.0087 µM | 122
